These results are taken from ChEMBL document CHEMBL4385667, “Phosphoramidate derivates as controlled-release prodrugs of l-Dopa” (Bioorg Med Chem Lett, 2019).

What all share (assay type): physicochemical
The nature of data set [1]: Stability in pH 3 buffer assessed as half life at 37 degC by 31P NMR analysis.
The nature of data set [2]: Stability in pH 3 buffer assessed as rate constant of compound hydrolysis at 37 degC by 31P NMR analysis.
The nature of data set [3]: Stability in pH 7.4 buffer assessed as compound hydrolysis measured over 8 hrs at 37 degC by 31P NMR analysis. The conditions noted are these: pH 7.4, 8 h.
A short description of data set [4]: Stability in pH 7.4 buffer assessed as half life at 37 degC by 31P NMR analysis. As to conditions: for half-life: pH 7.4 buffer.
Data set [5] in a line: Stability in pH 7.4 buffer assessed as rate constant of compound hydrolysis at 37 degC by 31P NMR analysis.

On to `CCOC(=O)[C@@H](NC(C)=O)[C@@H](C)OP(=O)([O-])N[C@@H](Cc1ccc(O)c(O)c1)C(=O)[O-].[K+].[K+]`, for which the half-life in data set [1] is 5.5 h; in data set [4], over 8 h. Moreover, the results for the K in data set [2] and in data set [5] were 1.2 ×10⁻¹ /hr and “Stable”, respectively. In addition, in data set [3], the Stability result is reported as “Stable”.

With `O=C([O-])CCOP(=O)([O-])N[C@@H](Cc1ccc(O)c(O)c1)C(=O)[O-].[K+].[K+].[K+]`, the half-life in data set [1] and in data set [4] was under 0.0833 h in each case. Besides, the K result in data set [2] and in data set [5] was “Unstable” throughout.

Consider `CC(=O)N[C@H](C(=O)[O-])[C@@H](C)OP(=O)([O-])N[C@@H](Cc1ccc(O)c(O)c1)C(=O)[O-].[K+].[K+].[K+]`, for which the half-life is under 0.0833 h in data set [1] and 0.92 h in data set [4]. The K result in data set [2] is recorded as “Unstable”; in data set [5], 7.2 ×10⁻¹ /hr.

As for `CC(=O)N[C@@H](COP(=O)([O-])N[C@@H](Cc1ccc(O)c(O)c1)C(=O)[O-])C(=O)[O-].[K+].[K+].[K+]`, in data set [1], the half-life was under 0.0833 h. The K result in data set [2] is “Unstable”; in data set [5], 7 ×10⁻² /hr. For the same molecule, the t1/2 in data set [4] (buffer) was determined as 9.9 h.

As to `O=C([O-])CCCOP(=O)([O-])N[C@@H](Cc1ccc(O)c(O)c1)C(=O)[O-].[K+].[K+].[K+]`, the half-life in data set [1] was 1.2 h; in data set [4], over 8 h. For the same molecule, the K is recorded as 5.4 ×10⁻¹ /hr in data set [2] and “Stable” in data set [5]. Besides, the Stability entry in data set [3] is on record as “Stable”.

Take `CC(=O)NCCOP(=O)([O-])N[C@@H](Cc1ccc(O)c(O)c1)C(=O)[O-].[K+].[K+]`: the figures for the half-life in data set [1] and in data set [4] were 1.7 h and over 8 h, respectively. The K in data set [2] is listed as 4 ×10⁻¹ /hr; in data set [5], “Stable”. In data set [3], the Stability entry is “Stable”.

In the case of `CC(=O)N[C@@H](COP(=O)([O-])NCCc1ccc(O)c(O)c1)C(=O)[O-].[K+].[K+]`, the half-life in data set [1] was under 0.0833 h; in data set [4], 12.1 h. In addition, the K entry is given as “Unstable” in data set [2] and 5.7 ×10⁻² /hr in data set [5].

`CCOC(=O)CCOP(=O)([O-])N[C@@H](Cc1ccc(O)c(O)c1)C(=O)[O-].[K+].[K+]`: the half-life was 1.7 h in data set [1] and over 8 h in data set [4]. Moreover, the values for the K in data set [2] and in data set [5] were 4 ×10⁻¹ /hr and “Stable”, respectively. Further, the Stability entry in data set [3] is on record as “Stable”.

With `CCOC(=O)[C@H](COP(=O)([O-])N[C@@H](Cc1ccc(O)c(O)c1)C(=O)[O-])NC(C)=O.[K+].[K+]`, the half-life in data set [1] is 2.7 h; in data set [4] it was over 8 h. In addition, the K is on record as 2.5 ×10⁻¹ /hr in data set [2] and “Stable” in data set [5]. In addition, in data set [3], the Stability entry is listed as “Stable”.

By half-life is commonly meant how long it takes for the measured level to halve.
